Laboratory results as given in ChEMBL document CHEMBL1127998, “Conformationally constrained analogues of diacylglycerol. 9.1 the effect of side-chain orientation on the protein kinase C (PK-C) binding affinity of -lactones” (Bioorg Med Chem Lett, 1994).

test: Displacement of [3H-20]-phorbol-12-13-dibutyrate from protein kinase C (alpha, beta, gamma) of mouse brain; type: tissue-based

Row | Ki [µM] | SMILES
1 | 2.8 | CCCCCCCCCCCCCC(=O)O[C@@H]1CCC(=O)O[C@H]1CO
2 | 0.2 | CCCCCCCCCCCCC/C=C1\C(=O)O[C@@H](CO)[C@@H]1OC(C)=O
3 | 2.5 | CCCCCCCCCCCCCC(=O)O[C@@H]1CC(=O)O[C@H]1CO
4 | 0.6 | CCCCCCCCCCCCC/C=C1/C(=O)O[C@@H](CO)[C@@H]1OC(C)=O
